Assay results published in patent US9278962B2 (Cytokinetics, Inc., priority 2011, dated 2016).

Test system: rabbit skeletal myofibrils (approximately 90% fast fibers)
Assay: Activation of fast skeletal myofibrils (PUMA coupled-enzyme ATPase assay, AC1.4)
Assay type: biochemical
Conditions: concentration at which the compound increased enzymatic activity by 40%, calcium at pCa25
Description: Rabbit skeletal myofibrils were prepared based upon the method of Herrmann et al. (Biochem. 32(28):7255-7263(1993). Myofibrils were prepared from rabbit psoas muscle purchased from Pel-Freez Biologicals (Arkansas) within 2 days of ordering, stored on ice. Minced muscle was homogenized in 10 volumes of ice-cold “standard” buffer (50 mM Tris, pH 7.4, 0.1 M potassium acetate, 5 mM KCl, 2 mM DTT, 0.2 mM PMSF, 10 μM leupeptin, 5 μM pepstatin, and 0.5 mM sodium azide) containing 5 mM EDTA and 0.5% Triton X-100 using an Omni-Macro homogenizer. Myofibrils were recovered by low speed centrifugation (3000 rpm for 10 minutes) and washed 2 times in the Triton X-100 containing buffer to ensure removal of cellular membrane. Following the Triton washes, myofibrils were washed 3 times in “standard” buffer containing 2 mM magnesium acetate. A final wash in assay buffer (12 mM PIPES, pH 6.8, 60 mM KCl, 1 mM DTT) was performed and brought to 10% sucrose for flash freezing in liquid nitrogen and storage at −80° C.
Fast fiber activators were identified by measuring the enzymatic activity of muscle myofibril preparations using the proprietary PUMA™ (see, e.g., U.S. Pat. Nos. 6,410,254, 6,743,599, 7,202,051, and 7,378,254) assay system. Myofibril preparations consisted of rabbit skeletal muscle (approximately 90% fast fibers) that had been mechanically homogenized and washed with a detergent (triton X-100) to remove cellular membranes. This preparation retained all of the sarcomeric components in a native conformation and the enzymatic activity was still regulated by calcium. Compounds were tested using a myofibril suspension and a level of calcium sufficient to increase enzymatic activity of the myofibrils to 25% of their maximal rate (termed pCa25). Enzymatic activity was tracked via a pyruvate kinase and lactate dehydrogenase-coupled enzyme system. This assay regenerates myosin-produced ADP into ATP by oxidizing NADH, producing an absorbance change at 340 nm. The buffering system was 12 mM Pipes, 2 mM MgCl2, 1 mM DTT at pH 6.8 (PM12 buffer).
Using procedures similar to those described herein, utilizing reagents and intermediates commercially available (e.g., Sigma-Aldrich) or readily synthesized by one of skill in the art, the compounds in Table 2, Table 3, Table 4 and Table 5 were synthesized, characterized and tested. AC1.4 values were determined according to the procedure described in Example 6, and the reported median AC1.4 values are as follows: A=<1 uM; B=1-10 uM; C=10-20 uM; D=>20 uM.

Mean AC1.4 (Table 4) | Mean AC1.4 (Table 2) | Compound | further results
B (B=1-10 uM) | – | CC(C)(CNc1nc2cc(C#N)ccc2s1)c1ccc(F)cc1 [2-(2-(4-fluorophenyl)-2-methylpropylamino)benzo[d] thiazole-5-carbonitrile] | –
B (B=1-10 uM) | – | CC(C)(CNc1nc2cc(C(N)=O)ccc2s1)c1ccc(F)cc1 [2-(2-(4-fluorophenyl)-2-methylpropylamino)benzo[d] thiazole-5-carboxamide] | –
B (B=1-10 uM) | – | CC(C)(CNc1nc2ccc(C#N)cc2s1)c1ccc(F)cc1 [2-(2-(4-fluorophenyl)-2-methylpropylamino)benzo[d] thiazole-6-carbonitrile] | –
A (A=<1 uM) | – | CC(C)(CNc1nc2ccc(C(N)=O)cc2s1)c1ccc(F)cc1 [2-(2-(4-fluorophenyl)-2-methylpropylamino)benzo[d] thiazole-6-carboxamide] | –
B (B=1-10 uM) | – | CC(C)(CNc1nc2cccc(C#N)c2s1)c1ccc(F)cc1 [2-(2-(4-fluorophenyl)-2-methylpropylamino)benzo[d] thiazole-7-carbonitrile] | –
B (B=1-10 uM) | – | CC(C)(CNc1nc2cccc(C(N)=O)c2s1)c1ccc(F)cc1 [2-(2-(4-fluorophenyl)-2-methylpropylamino)benzo[d] thiazole-7-carboxamide] | –
D (D=>20 uM) | – | N#Cc1ccc2nc(NCCc3ccc(F)cc3)sc2c1 [2-(4-fluorophenethylamino)benzo[d] thiazole-6-carbonitrile] | –
B (B=1-10 uM) | – | NC(=O)c1ccc2nc(NCCc3ccc(F)cc3)sc2c1 [2-(4-fluorophenethylamino)benzo[d] thiazole-6-carboxamide] | –
– | D (D=>20 uM) | Cc1nsc(NC(=O)C(C)(C)c2ccc(F)cc2)n1 [2-(4-fluorophenyl)-2-methyl-N-(3-methyl(1,2,4-thiadiazol-5-yl))propanamide] | –
– | D (D=>20 uM) | CC(C)(C(=O)Nc1nc(-c2ccccc2)ns1)c1ccc(F)cc1 [2-(4-fluorophenyl)-2-methyl-N-(3-phenyl(1,2,4-thiadiazol-5-yl))propanamide] | –
– | B (B=1-10 uM) | CC(C)(CNc1nc(-c2ccccc2O)ns1)c1ccc(F)cc1 [2-(5-{[2-(4-fluorophenyl)-2-methylpropyl]amino}-1,2,4-thiadiazol-3-yl)phenol] | –
B (B=1-10 uM) | – | N#Cc1ccc2nc(NCC3(c4ncccc4F)CCC3)sc2c1 [2-((1-(3-fluoropyridin-2-yl)cyclobutyl)methylamino)benzo[d] thiazole-6-carbonitrile] | –
B (B=1-10 uM) | – | NC(=O)c1ccc2nc(NCC3(c4ncccc4F)CCC3)sc2c1 [2-((1-(3-fluoropyridin-2-yl)cyclobutyl)methylamino)benzo[d] thiazole-6-carboxamide] | –
D (D=>20 uM) | – | COc1cccnc1C1(CNc2nc3ccc(C#N)cc3s2)CCC1 [2-((1-(3-methoxypyridin-2-yl)cyclobutyl)methylamino)benzo[d] thiazole-6-carbonitrile] | –

Second part, the molecule before the results:

Compound | Mean AC1.4 (Table 4) | Mean AC1.4 (Table 2) | further results
NC(=O)c1cccc2sc(NC[C@]3(c4ncccc4F)C[C@H](F)C3)nc12 | D (D=>20 uM) | – | –
CN(CCO)c1nsc(NCC(C)(C)c2ccc(F)cc2)n1 | – | D (D=>20 uM) | –
O=C(Nc1ccn(-c2ccccc2)n1)C1(c2ncccc2F)CCC1 [1-(3-fluoropyridin-2-yl)-N-(1-phenyl-1H-pyrazol-3-yl)cyclobutanecarboxamide] | – | – | Mean AC1.4 (Table 5): D (D=>20 uM)
Cc1cc(NC(=O)C2(c3ncccc3F)CCC2)nn1-c1ccccc1 [1-(3-fluoropyridin-2-yl)-N-(5-methyl-1-phenyl-1H-pyrazol-3-yl)cyclobutanecarboxamide] | – | – | Mean AC1.4 (Table 5): D (D=>20 uM)
CC(C)(CNc1nc(C(O)CO)ns1)c1ccc(F)cc1 (stereo not shown) [1-(5-{[2-(4-fluorophenyl)-2-methylpropyl]amino}-1,2,4-thiadiazol-3-yl)ethane-1,2-diol] | – | B (B=1-10 uM) | –
CC(C)(CNc1nc(CCC(=O)N2CC[C@@H](O)C2)ns1)c1ccc(F)cc1 [1-((3R)-3-hydroxypyrrolidinyl)-3-(5-{[2-(4-fluorophenyl)-2-methylpropyl]amino}(1,2,4-thiadiazol-3-yl))propan-1-one] | – | D (D=>20 uM) | –
CC(C)(CNc1nc(CCC(=O)N2CC[C@H](O)C2)ns1)c1ccc(F)cc1 [1-((3S)-3-hydroxypyrrolidinyl)-3-(5-{[2-(4-fluorophenyl)-2-methylpropyl]amino}(1,2,4-thiadiazol-3-yl))propan-1-one] | – | D (D=>20 uM) | –
CC(C)(CNc1nc(CCN2CCCC(O)C2)ns1)c1ccc(F)cc1 (stereo not shown) [1-[2-(5-{[2-(4-fluorophenyl)-2-methylpropyl]amino}-1,2,4-thiadiazol-3-yl)ethyl]piperidin-3-ol] | – | C (C=10-20 uM) | –
CC(C)(CNc1nc(CCN2CCC(O)CC2)ns1)c1ccc(F)cc1 [1-[2-(5-{[2-(4-fluorophenyl)-2-methylpropyl]amino}-1,2,4-thiadiazol-3-yl)ethyl]piperidin-4-ol] | – | D (D=>20 uM) | –
CC(C)(CNc1nc(CN2CCN(S(C)(=O)=O)CC2)ns1)c1ccc(F)cc1 [1-[(5-{[2-(4-fluorophenyl)-2-methylpropyl]amino}(1,2,4-thiadiazol-3-yl))methyl]-4-(methylsulfonyl)piperazine] | – | C (C=10-20 uM) | –
CC(C)(CNc1nc(CN2CCCC(O)C2)ns1)c1ccc(F)cc1 (stereo not shown) [1-[(5-{[2-(4-fluorophenyl)-2-methylpropyl]amino}-1,2,4-thiadiazol-3-yl)methyl]piperidin-3-ol] | – | D (D=>20 uM) | –
CC(C)(CNc1nc(CN2CCC(O)CC2)ns1)c1ccc(F)cc1 [1-[(5-{[2-(4-fluorophenyl)-2-methylpropyl]amino}-1,2,4-thiadiazol-3-yl)methyl]piperidin-4-ol] | – | D (D=>20 uM) | –
CC(C)(CNc1nc(CN2CCN(C(=O)CO)CC2)ns1)c1ccc(F)cc1 [1-{4-[(5-{[2-(4-fluorophenyl)-2-methylpropyl]amino}(1,2,4-thiadiazol-3-yl))methyl]piperazinyl}-2-hydroxyethan-1-one] | – | D (D=>20 uM) | –
CC(C)(O)c1ccc2nc(NCC(C)(C)c3ccc(F)cc3)sc2c1 [2-(2-(2-(4-fluorophenyl)-2-methylpropylamino)benzo[d]thiazol-6-yl)propan-2-ol] | A (A=<1 uM) | – | –
CN(C)C(=O)c1ccc2nc(NCC(C)(C)c3ccc(F)cc3)sc2c1 [2-(2-(4-fluorophenyl)-2-methylpropylamino)-N,N-dimethylbenzo[d]thiazole-6-carboxamide] | B (B=1-10 uM) | – | –
CNC(=O)c1ccc2nc(NCC(C)(C)c3ccc(F)cc3)sc2c1 [2-(2-(4-fluorophenyl)-2-methylpropylamino)-N-methylbenzo[d]thiazole-6-carboxamide] | B (B=1-10 uM) | – | –
CC(C)(CNc1nc2ccc(C(=O)O)cc2s1)c1ccc(F)cc1 [2-(2-(4-fluorophenyl)-2-methylpropylamino)benzo-6-carboxylic acid] | C (C=10-20 uM) | – | –
CC(C)(CNc1nc2c(C#N)cccc2s1)c1ccc(F)cc1 [2-(2-(4-fluorophenyl)-2-methylpropylamino)benzo[d] thiazole-4-carbonitrile] | A (A=<1 uM) | – | –
CC(C)(CNc1nc2c(C(N)=O)cccc2s1)c1ccc(F)cc1 [2-(2-(4-fluorophenyl)-2-methylpropylamino)benzo[d] thiazole-4-carboxamide] | C (C=10-20 uM) | – | –
CC(C)(O)c1ccc(F)c(-c2nnc(NC[C@]3(c4ncccc4F)C[C@H](F)C3)s2)c1 [2-(4-fluoro-3-(5-((3-fluoro-1-(3-fluoropyridin-2-yl)cyclobutyl)methylamino)-1,3,4-thiadiazol-2-yl)phenyl)propan-2-ol] | – | – | Mean AC1.4 (Table 3): B (B=1-10 uM)
NC(=O)c1ccccc1-c1nnc(NCC2(c3ncccc3F)CCC2)s1 [2-(5-((1-(3-fluoropyridin-2-yl)cyclobutyl)methylamino)-1,3,4-thiadiazol-2-yl)benzamide] | – | – | Mean AC1.4 (Table 3): D (D=>20 uM)
N#Cc1ccccc1-c1nnc(NCC2(c3ncccc3F)CCC2)s1 [2-(5-((1-(3-fluoropyridin-2-yl)cyclobutyl)methylamino)-1,3,4-thiadiazol-2-yl)benzonitrile] | – | – | Mean AC1.4 (Table 3): B (B=1-10 uM)
N#Cc1ccc(C#N)c(-c2nnc(NC[C@]3(c4ncccc4F)C[C@H](F)C3)s2)c1 [2-(5-((3-fluoro-1-(3-fluoropyridin-2-yl)cyclobutyl)methylamino)-1,3,4-thiadiazol-2-yl)terephthalonitrile] | – | – | Mean AC1.4 (Table 3): B (B=1-10 uM)
